Assay results taken from patent US12566283B2, “Optical absorbent” (LMS CO., LTD., priority 2022, dated 2026).

What was measured:
Format in all cases: physicochemical
[1] = Pyrolysis temperature (Td 5%) analysis by TGA; conditions: 25° C. to 800° C., 10° C./min, nitrogen 60 cm^3/min
Procedure: The Td 5% is a value obtained through Thermogravimetric Analysis (TGA). It is a value (Td 5%) at the weight loss of 95% confirmed in a temperature range of 25° C. to 800° C., with a heating rate of 10° C./min and under nitrogen (N2) atmosphere condition of 60 cm^3/min.
Thermogravimetric analysis (TGA) was performed by using TGA N-1000 equipment manufactured by Scinco Co. The analysis was performed by using about 3 mg of the sample (optical absorbent) and the analysis was conducted at a temperature range of 25° C. to 800° C., with a temperature increase rate of 10° C./min, and under 60 cm^3/min of a nitrogen (N2) atmosphere. As for the Td pyrolysis temperature, the value(Td 5%) at 95% weight loss was used.

[2] = Measuring solubility of the optical absorbent in methylene chloride; conditions: room temperature (about 25° C.)
Procedure: 3. Measuring Solubility The solubility of the optical absorbent was evaluated. Solubility was determined according to the following criteria by evaluating the solubility of the optical absorbent in the solvent (MC, Methylene Chloride) at room temperature (about 25° C.). <Solubility Criteria> • A: When the solubility is 1% by mass or more. • B: When the solubility is 0.5% by mass or more and less than 1% by mass. • C: When the solubility is 0.2% by mass or more and less than 0.5% by mass. • D: When the solubility is less than 0.2% by mass. 4. Pyrolysis Temperature (Td 5%) Analysis

[3] = Test Example 2: absorption maximum of optical absorption film before and after high temperature and high humidity evaluation; conditions: for ΔA: 100×(Af−Ai)/Ai; for Δλ: 100×(λf−λi)/λi; for Ai (transmittance at the absorption maximum wavelength) / λi (absorption maximum wavelength): optical absorption film before being maintained at 85° C.; for Af (transmittance at the absorption maximum wavelength) / λf (absorption maximum wavelength): optical absorption film maintained at 85° C.
Procedure: (§1) A coating solution was prepared by mixing a silicone resin (Dow Chemical, RSN-0217) as a resin component, an optical absorbent, and a solvent (Cyclohexanone). The mixing ratio of the resin component, the optical absorbent and the solvent was 69.3:0.99:29.7 in weight ratio (Resin:Optical Absorbent:Solvent).
(§2) The coating solution was coated on a transparent substrate (a glass substrate manufactured by SCHOTT Co.) and maintained at 140° C. for about 2 hours to form an optical absorption film having a thickness of about 6 μm. The optical absorbent of Embodiment 1, Embodiment 2 or Comparative Example 1 was used as the optical absorbent.
For the optical absorption film prepared in Test Example 1, the absorbance spectrum of the optical absorption film prepared by using the optical absorbent of Embodiment 1 is shown in FIG. 7, the absorbance spectrum of the optical absorption film prepared by using the optical absorbent of Embodiment 2 is shown in FIG. 8, and the absorbance spectrum of the optical absorption film prepared by using the optical absorbent of Comparative Example 1 is shown in FIG. 9. In FIGS. 7 to 9, A-1, A-2, and A-3 indicate evaluations of the optical absorption films of Embodiments 1 and 2 and Comparative Example 1, respectively. […] The high-temperature and high-humidity evaluation is an evaluation where the optical absorption film is maintained at a temperature of 85° C. and under a relative humidity of 85% for 120 hours.
In Table 3, Af is the transmittance at the absorption maximum wavelength of the optical absorption film maintained at 85° C. temperature and under 85% relative humidity for 120 hours, λf is the absorption maximum wavelength at this time, and Ai is the transmittance at the absorption maximum wavelength of the optical absorption film before being maintained at 85° C. temperature and under 85% relative humidity for 120 hours. λi is the absorption maximum wavelength at this time.
In Table 3, ΔA is a value calculated as 100×(Af−Ai)/Ai and Δλ is a value calculated as 100×(λf−λi)/λi.

[4] = Test Example 1: transmittance of optical absorption film before and after reliability evaluation (85° C., 85% relative humidity, 120 hours); conditions: for Tave 425~465 nm, Δ / Tave 466~480 nm, Δ / Tave 480~560 nm, Δ / Tmin 425~465 nm, Δ / Tmin 466~480 nm, Δ / Λmax Tmax, Δ: change rate 100×(A−B)/B; for Tmin 425~465 nm, B: silicone resin film about 6 μm; for Tmin 425~465 nm, B / Tmin 425~465 nm, A / Tmin 466~480 nm, A / Tmin 466~480 nm, B: minimum transmittance; for Tmin 425~465 nm, B / Tave 425~465 nm, B / Tave 466~480 nm, B / Tave 480~560 nm, B / Tmin 466~480 nm, B: before reliability evaluation; for Tave 425~465 nm, A / Tave 466~480 nm, A / Tave 480~560 nm, A / Tave 425~465 nm, B / Tave 466~480 nm, B / Tave 480~560 nm, B / Tmin 425~465 nm, A / Tmin 466~480 nm, A / Tmin 466~480 nm, B: silicone resin film; for Tave 425~465 nm, A / Tave 466~480 nm, A / Tave 480~560 nm, A / Tave 425~465 nm, B / Tave 466~480 nm, B / Tave 480~560 nm, B: average transmittance; for Tave 425~465 nm, A / Tave 466~480 nm, A / Tave 480~560 nm, A / Tmin 425~465 nm, A / Tmin 466~480 nm, A: after 85° C., 85% relative humidity, 120 hours
Procedure: 2. Evaluation of Transmittance Spectrum
The transmittance spectrum was measured by using a spectrophotometer (Manufacturer: Perkinelmer Co., Product Name: Lambda 750 Spectrophotometer) for a specimen obtained by cutting the measurement subject (e.g., an optical absorption film) to 10 mm and 10 mm in width and length, respectively. The transmittance spectrum was measured for each wavelength and incident angle according to the manual of the equipment. The specimen was placed on a straight line between the measuring beam and the detector of the spectrophotometer, and the transmittance spectrum was checked while changing the incident angle of the measuring beam from 0° to 40°. Unless specifically stated otherwise, the result of the transmittance spectrum in this embodiment was the result when the incident angle is 0°. The incident angle of 0° is a direction substantially parallel to the direction normal to the surface of the specimen.
The average transmittance within a predetermined wavelength region in the transmittance spectrum was the result of measuring the transmittance of each wavelength while increasing the wavelength by 1 nm from the shortest wavelength in the wavelength region, and then calculating the arithmetic average of the measured transmittance. The maximum transmittance is the maximum one among the transmittance measured while increasing the wavelength by 1 nm. For example, the average transmittance within the wavelength range of 350 nm to 360 nm is the arithmetic average of transmittances measured at wavelengths of 350 nm, 351 nm, 352 nm, 353 nm, 354 nm, 355 nm, 356 nm, 357 nm, 358 nm, 359 nm and 360 nm and the maximum transmittance within the wavelength range of 350 nm to 360 nm is the highest transmittance among transmittances measured at wavelengths of 350 nm, 351 nm, 352 nm, 353 nm, 354 nm, 355 nm, 356 nm, 357 nm, 358 nm, 359 nm and 360 nm.
as §1, §2
Table 2 below summarizes the transmittance of the optical absorption film before and after reliability evaluation in the ultraviolet and the near infrared regions. The reliability evaluation is an evaluation of the optical absorption film maintained at 85° C. and 85% relative humidity for 120 hours. In Table 2, B means the result before performing the reliability evaluation, and A means the result after performing the reliability evaluation. In addition, in Table 2, Λmax means the transmittance at the absorption maximum.
In Table 2, Δ is the change rate (%) of each characteristic before and after the reliability evaluation and it is a result calculated as 100×(A−B)/B, where A is a numerical value indicated under column A in Table 2, and B is a numerical value indicated under column B in Table 2. In Table 2, Tmax denotes the highest transmittance within a corresponding wavelength range, Tave denotes an average transmittance within a corresponding wavelength range, and Tmin denotes a minimum transmittance within a corresponding wavelength range.

[5] = Measuring absorption maximum of the optical absorbent in chloroform; conditions: about 10^−5 M
Procedure: 1. Measuring Absorption Maximum
The absorption maximum was evaluated by a conventional method. Specifically, the sample was dissolved in a chloroform solvent at a concentration of about 10^−5 M and then evaluated by using a measuring instrument (Agilent, Varian Cary 4000).

[6] = 85% relative humidity, 120 hours

In the case of `C/C(C1=Nc2ccc([Si](C)(C)C)cc2C1(C)C)=C1/C(=O)C(C(/C)=C2/Nc3ccc([Si](C)(C)C)cc3C2(C)C)=C1O` [Comparative Example 1, reference compound], the “Td 5% (5% pyrolysis temperature)” value [1] is reported as 187 °C, the Solubility [2] is reported as “A (When the solubility is 1% by mass or more)” and the ΔA [3] is reported as 36.7%. The Δλ [3] was 24.4%, the “Ai (transmittance at the absorption maximum wavelength)” value (“Ai” below) [3, 6] was 66.3% and the “λi (absorption maximum wavelength)” value [3, 6] was 731 nm. The “Af (transmittance at the absorption maximum wavelength)” value [3, 6] was 90.6%, the “λf (absorption maximum wavelength)” value [3, 6] was 909 nm and the “light absorption characteristics before and after high temperature and high humidity” value ([3]; optical absorption film, 85° C., 85% relative humidity, 120 hours, FIGS. 7 to 9) was “almost lost”. For the same compound, the “Tave 425~465 nm, Δ” value [4] was 0%, the “Tave 466~480 nm, Δ” value [4] was −0.1% and the “Tave 480~560 nm, Δ” value [4] was −0.1%. For the same compound, the “Tmin 425~465 nm, Δ” value [4] was 0.3%, the “Tmin 466~480 nm, Δ” value [4] was −0.1% and the “Λmax Tmax, Δ” value [4] was 34.7%. For the same compound, the “Tmin 425~465 nm, B” value [4] was 91.35, the “Tave 425~465 nm, A” value [4] was 92.03 and the “Tave 466~480 nm, A” value [4] was 92.07. The “Tave 480~560 nm, A” value [4] was 92.27, the “Tave 425~465 nm, B” value [4] was 91.99 and the “Tave 466~480 nm, B” value [4] was 92.14. For the same compound, the “Tave 480~560 nm, B” value [4] was 92.32, the “Tmin 425~465 nm, A” value [4] was 91.62 and the “Tmin 466~480 nm, A” value [4] was 91.76. For the same compound, the “Tmin 466~480 nm, B” value [4] was 91.84, the “Absorption Maximum Wavelength” value [5] was 738 nm and the “Absorption Maximum Wavelength” value ([5]; listed as A3) was “about 738 nm”.
For `CC1N(CCC[Si](C)(C)C)c2c(cc(C3=C([O-])/C(=c4/cc5c(c6ccccc46)=[N+](CCC[Si](C)(C)C)C(C)C5(C)C)C3=O)c3ccccc23)C1(C)C` (stereo not shown) [Embodiment 2], the “Td 5% (5% pyrolysis temperature)” value [1] was 260 °C, the Solubility [2] was “A (When the solubility is 1% by mass or more)” and the ΔA [3] was 6.8%. For the same compound, the Δλ [3] was 0%, the “Ai” value [3, 6] was 8.91% and the “λi (absorption maximum wavelength)” value [3, 6] was 765 nm. For the same compound, the “Af (transmittance at the absorption maximum wavelength)” value [3, 6] was 9.52%, the “λf (absorption maximum wavelength)” value [3, 6] was 765 nm and the “Tave 425~465 nm, Δ” value [4] was −0.2%. For the same compound, the “Tave 466~480 nm, Δ” value [4] was 0%, the “Tave 480~560 nm, Δ” value [4] was −0.1% and the “Tmin 425~465 nm, Δ” value [4] was −0.3%. The “Tmin 466~480 nm, Δ” value [4] was 0.1%, the “Λmax Tmax, Δ” value [4] was 7% and the “Tmin 425~465 nm, B” value [4] was 88.75. The “Tave 425~465 nm, A” value [4] was 89.72, the “Tave 466~480 nm, A” value [4] was 88.64 and the “Tave 480~560 nm, A” value [4] was 90.86. For the same compound, the “Tave 425~465 nm, B” value [4] was 89.87, the “Tave 466~480 nm, B” value [4] was 88.61 and the “Tave 480~560 nm, B” value [4] was 90.93. The “Tmin 425~465 nm, A” value [4] was 88.52, the “Tmin 466~480 nm, A” value [4] was 87.95 and the “Tmin 466~480 nm, B” value [4] was 87.88. The “Absorption Maximum Wavelength” value [5] was 772 nm and the “Absorption Maximum Wavelength” value ([5]; listed as A2) was “about 772 nm”.
With `CC1N(CCC[Si](C)(C)C)c2ccc(C3=C([O-])/C(=c4\ccc5c(c4)C(C)(C)C(C)[N+]=5CCC[Si](C)(C)C)C3=O)cc2C1(C)C` (stereo not shown) [Embodiment 1] the “Td 5% (5% pyrolysis temperature)” value [1] was 247 °C, the Solubility [2] was “A (When the solubility is 1% by mass or more)” and the ΔA [3] was 8.2%. For the same compound, the Δλ [3] was 0%, the “Ai” value [3, 6] was 6.12% and the “λi (absorption maximum wavelength)” value [3, 6] was 658 nm. For the same compound, the “Af (transmittance at the absorption maximum wavelength)” value [3, 6] was 6.62%, the “λf (absorption maximum wavelength)” value [3, 6] was 658 nm and the “Tave 425~465 nm, Δ” value [4] was −0.3%. For the same compound, the “Tave 466~480 nm, Δ” value [4] was −0.1%, the “Tave 480~560 nm, Δ” value [4] was −0.1% and the “Tmin 425~465 nm, Δ” value [4] was −0.2%. The “Tmin 466~480 nm, Δ” value [4] was 0%, the “Λmax Tmax, Δ” value [4] was 8.2% and the “Tmin 425~465 nm, B” value [4] was 89.64. For the same compound, the “Tave 425~465 nm, A” value [4] was 90.26, the “Tave 466~480 nm, A” value [4] was 89.58 and the “Tave 480~560 nm, A” value [4] was 91.06. The “Tave 425~465 nm, B” value [4] was 90.49, the “Tave 466~480 nm, B” value [4] was 89.64 and the “Tave 480~560 nm, B” value [4] was 91.17. For the same compound, the “Tmin 425~465 nm, A” value [4] was 89.42, the “Tmin 466~480 nm, A” value [4] was 89.10 and the “Tmin 466~480 nm, B” value [4] was 89.06. For the same compound, the “Absorption Maximum Wavelength” value [5] was 652 nm and the “Absorption Maximum Wavelength” value ([5]; listed as A1) was “about 652 nm”.
